Test results as given in ChEMBL document CHEMBL1138997, “Synthesis and antitumor activity of simplified ecteinascidin-saframycin analogs” (Bioorg Med Chem Lett, 2006).
pIC50: −log10 of the molar value.

Legend:
Type in all cases: functional, cell-based
Conditions in all cases: Homo sapiens
HCT-8 = assay: Cytotoxicity against HCT8 colon carcinoma cell
Bel-7402 = assay: Cytotoxicity against Bel7402 liver carcinoma cell
BGC-823 = assay: Cytotoxicity against BGC823 gastric carcinoma cell

Row | SMILES | pIC50 (HCT-8) | pIC50 (Bel-7402) | pIC50 (BGC-823)
1 | COc1ccc(CC(=O)OC[C@H]2c3cc(OC)c(OC)cc3C[C@H]3[C@H]4c5cc(OC)c(OC)cc5C[C@@H]([C@H](C#N)N23)N4C)cc1 | 5.45 | 5.52 | 5.94
2 | COc1cc2c(cc1OC)[C@@H]1[C@@H]3Cc4cc(OC)c(OC)cc4[C@H](COC(=O)Cc4ccc(F)cc4)N3[C@@H](C#N)[C@H](C2)N1C | 6.62 | 6.70 | 6.70
3 | C=CC(=O)OC[C@H]1c2cc(OC)c(OC)cc2C[C@H]2[C@H]3c4cc(OC)c(OC)cc4C[C@@H]([C@H](C#N)N12)N3C | 5.67 | 6.12 | 6.34
4 | C=CC(=O)NC[C@H]1c2cc(OC)c(OC)cc2C[C@H]2[C@H]3c4cc(OC)c(OC)cc4C[C@@H]([C@H](C#N)N12)N3C | 5.57 | 5.73 | 5.70
5 | COc1cc2c(cc1OC)[C@@H]1[C@@H]3Cc4cc(OC)c(OC)cc4[C@H](COC(=O)c4ccccn4)N3[C@@H](C#N)[C@H](C2)N1C | 5.29 | 5.69 | 5.84
6 | COc1cc2c(cc1OC)[C@@H]1[C@@H]3Cc4cc(OC)c(OC)cc4[C@H](CNC(=O)c4ccco4)N3[C@@H](C#N)[C@H](C2)N1C | 5.86 | 5.92 | 5.88
7 | COc1cc2c(cc1OC)[C@@H]1[C@@H]3Cc4cc(OC)c(OC)cc4[C@H](COC(=O)c4cccc(Cl)c4)N3[C@@H](C#N)[C@H](C2)N1C | 7.00 | 5.95 | 7.54
8 | COc1cc2c(cc1OC)[C@@H]1[C@@H]3Cc4cc(OC)c(OC)cc4[C@H](COC(=O)c4cc5ccccc5[nH]4)N3[C@@H](C#N)[C@H](C2)N1C | 6.21 | 6.07 | 8.00
9 | COc1cc2c(cc1OC)[C@@H]1[C@@H]3Cc4cc(OC)c(OC)cc4[C@H](COC(=O)[C@H]4Cc5ccccc5CN4Cc4ccccc4)N3[C@@H](C#N)[C@H](C2)N1C | 5.85 | 5.77 | 6.44
10 | COc1cc2c(cc1OC)[C@@H]1[C@@H]3Cc4cc(OC)c(OC)cc4[C@H](CNC(=O)c4ccc([N+](=O)[O-])cc4)N3[C@@H](C#N)[C@H](C2)N1C | 5.91 | 5.91 | 5.86
11 | COc1cc2c(cc1OC)[C@@H]1[C@@H]3Cc4cc(OC)c(OC)cc4[C@H](COC(=O)c4ccco4)N3[C@@H](C#N)[C@H](C2)N1C | 6.16 | 6.12 | 6.24
12 | COc1cc2c(cc1OC)[C@@H]1[C@@H]3Cc4cc(OC)c(OC)cc4[C@H](COC(C)=O)N3[C@@H](C#N)[C@H](C2)N1C | 6.51 | 6.47 | 6.82
13 | COc1cc2c(cc1OC)[C@@H]1[C@@H]3Cc4cc(OC)c(OC)cc4[C@H](CNC(=O)c4ccccc4)N3[C@@H](C#N)[C@H](C2)N1C | 5.87 | 5.87 | 5.85
14 | COc1cc2c(cc1OC)[C@@H]1[C@@H]3Cc4cc(OC)c(OC)cc4[C@H](COC(=O)c4cnccn4)N3[C@@H](C#N)[C@H](C2)N1C | 5.46 | 5.46 | 5.77
15 | COc1cc2c(cc1OC)[C@@H]1[C@@H]3Cc4cc(OC)c(OC)cc4[C@H](COC(=O)CCCc4ccccc4)N3[C@@H](C#N)[C@H](C2)N1C | 6.08 | 6.92 | 6.12
16 | COc1cc2c(cc1OC)[C@@H]1[C@@H]3Cc4cc(OC)c(OC)cc4[C@H](COC(=O)c4cncc(Br)c4)N3[C@@H](C#N)[C@H](C2)N1C | 5.93 | 5.83 | 6.35
17 | COc1cc2c(cc1OC)[C@@H]1[C@@H]3Cc4cc(OC)c(OC)cc4[C@H](COC(=O)c4cccc5ccccc45)N3[C@@H](C#N)[C@H](C2)N1C | 6.47 | 6.15 | 8.22
18 | COc1cc2c(cc1OC)[C@@H]1[C@@H]3Cc4cc(OC)c(OC)cc4[C@H](COC(=O)c4cccnc4)N3[C@@H](C#N)[C@H](C2)N1C | 5.48 | 5.68 | 5.99
19 | CCC(=O)OC[C@H]1c2cc(OC)c(OC)cc2C[C@H]2[C@H]3c4cc(OC)c(OC)cc4C[C@@H]([C@H](C#N)N12)N3C | 6.52 | 6.96 | 6.82
20 | COc1cc2c(cc1OC)[C@@H]1[C@@H]3Cc4cc(OC)c(OC)cc4[C@H](CNC(=O)c4ccccc4Cl)N3[C@@H](C#N)[C@H](C2)N1C | 5.73 | 5.73 | 5.72
21 | COc1cc2c(cc1OC)[C@@H]1[C@@H]3Cc4cc(OC)c(OC)cc4[C@H](CNC(=O)/C=C/c4ccccc4)N3[C@@H](C#N)[C@H](C2)N1C | 5.75 | 5.84 | 5.88
22 | COc1cc2c(cc1OC)[C@@H]1[C@@H]3Cc4cc(OC)c(OC)cc4[C@H](CNC(=O)c4cccs4)N3[C@@H](C#N)[C@H](C2)N1C | 5.89 | 6.10 | 5.94
23 | COc1cc2c(cc1OC)[C@@H]1[C@@H]3Cc4cc(OC)c(OC)cc4[C@H](CNC(=O)c4cccc(Cl)c4)N3[C@@H](C#N)[C@H](C2)N1C | 5.81 | 6.02 | 6.00
24 | COc1cc2c(cc1OC)[C@@H]1[C@@H]3Cc4cc(OC)c(OC)cc4[C@H](COC(=O)c4ccccc4)N3[C@@H](C#N)[C@H](C2)N1C | 6.36 | 6.23 | 7.82
25 | COc1cc2c(cc1OC)[C@@H]1[C@@H]3Cc4cc(OC)c(OC)cc4[C@H](CNC(=O)c4cccc5ccccc45)N3[C@@H](C#N)[C@H](C2)N1C | 5.76 | 5.68 | 5.73
26 | COc1cc2c(cc1OC)[C@@H]1[C@@H]3Cc4cc(OC)c(OC)cc4[C@H](COC(=O)/C=C/c4ccccc4)N3[C@@H](C#N)[C@H](C2)N1C | 7.43 | 6.17 | 7.24
27 | COc1cc2c(cc1OC)[C@@H]1[C@@H]3Cc4cc(OC)c(OC)cc4[C@H](COC(=O)c4cccs4)N3[C@@H](C#N)[C@H](C2)N1C | 5.80 | 6.09 | 6.68
